One experiment concerns M-NFS-60 cells. Briefly: M-NFS-60 cell proliferation assay (Alamar Blue). It is filed as cell-based, mouse. The settings on record: Mus musculus; M-NFS-60 cell proliferation; read-out: CSF1R M-NFS-60 CTB:IC50. In outline: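 Alamar Blue reduction (3 h; 560/590 nm) measured viability after 72 h, 37 °C treatment with nine half-log compound concentrations at 0.5% DMSO. Cells: M-CSF-dependent (20 ng/mL) murine M-NFS-60 in RPMI plus 10% FBS. IC50s, averaged from duplicates, reflect half-maximal inhibition of proliferation relative to control.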

Another experiment concerns the target CSF1R (Homo sapiens, UniProt P07333). Briefly: HEK293 CSF1R phosphorylation MSD assay. It is filed as cell-based. Also noted: expressed in transfected cells; host or cells: HEK293. The settings on record: HEK293 cells, M-CSF stimulated CSF1R phosphorylation, MSD; read-out: HEK293 pCSF1R M-CSF MSD:IC50. In outline: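 Ligand-induced CSF1R autophosphorylation was measured by MSD sandwich assay: CSF1R-FKBP from lysates captured via FK506, anti-phosphotyrosine readout. Cells were exposed to compound for 2 h (9-point, half-log, 0.5% DMSO) before 5 min 50 ng/mL M-CSF. Reported IC50 is the mean of duplicate-plate IC50s relative to DMSO control.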

The next experiment deals with T1, PDGFRβ (Homo sapiens, UniProt P09619).
T1 construct: made in house
T1 sequence (P09619 33-1106): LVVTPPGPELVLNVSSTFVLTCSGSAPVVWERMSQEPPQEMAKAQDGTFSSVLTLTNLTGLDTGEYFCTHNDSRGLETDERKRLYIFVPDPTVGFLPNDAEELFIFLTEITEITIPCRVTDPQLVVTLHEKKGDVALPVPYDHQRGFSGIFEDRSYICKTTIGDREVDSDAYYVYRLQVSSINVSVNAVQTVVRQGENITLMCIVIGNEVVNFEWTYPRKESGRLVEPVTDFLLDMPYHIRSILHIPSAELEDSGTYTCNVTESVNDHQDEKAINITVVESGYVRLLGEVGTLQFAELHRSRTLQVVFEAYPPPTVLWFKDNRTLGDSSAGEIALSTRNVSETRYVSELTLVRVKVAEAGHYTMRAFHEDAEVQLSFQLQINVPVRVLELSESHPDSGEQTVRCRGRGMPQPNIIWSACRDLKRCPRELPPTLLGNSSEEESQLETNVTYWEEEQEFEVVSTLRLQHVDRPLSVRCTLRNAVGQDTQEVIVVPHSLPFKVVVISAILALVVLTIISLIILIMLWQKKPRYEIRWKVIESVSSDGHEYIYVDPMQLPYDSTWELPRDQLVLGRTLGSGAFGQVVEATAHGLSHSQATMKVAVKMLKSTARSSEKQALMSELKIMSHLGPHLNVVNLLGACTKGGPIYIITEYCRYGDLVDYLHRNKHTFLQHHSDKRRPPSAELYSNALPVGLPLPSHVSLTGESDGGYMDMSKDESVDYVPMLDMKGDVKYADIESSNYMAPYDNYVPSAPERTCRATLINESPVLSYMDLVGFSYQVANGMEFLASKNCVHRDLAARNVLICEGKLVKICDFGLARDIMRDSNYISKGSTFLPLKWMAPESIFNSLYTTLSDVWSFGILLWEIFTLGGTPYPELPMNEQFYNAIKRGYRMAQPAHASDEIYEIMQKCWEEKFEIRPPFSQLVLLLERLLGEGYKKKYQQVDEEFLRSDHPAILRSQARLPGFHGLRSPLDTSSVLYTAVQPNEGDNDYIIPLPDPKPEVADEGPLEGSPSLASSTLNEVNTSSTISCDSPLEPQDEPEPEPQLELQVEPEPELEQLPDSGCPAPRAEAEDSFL
Briefly: Competition binding assay, PDGFRβ Kd. The settings on record: competition binding. In outline: (§1)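 Phage-fused or HEK-293/DNA-tagged kinase + ligand-coated streptavidin beads + compound, 1 h RT with shaking. Wash, elute with free ligand 30 min RT, qPCR of eluted kinase. Kd: 11-point 3-fold series.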

A further experiment addresses T2, KIT (Homo sapiens, UniProt P10721).
T2 construct: made in house
Briefly: Competition binding assay, KIT Kd. The settings on record: competition binding. An outline of the steps: as §1

IC50 and Kd data for 21 compounds are collected here from patent US9938261B2, “Heterocyclic compounds and methods of use thereof” (AMBIT BIOSCIENCES CORPORATION, priority 2011, dated 2018).

Each structure is given as a SMILES string. pIC50, pKd: −log10 of the molar value. Where only a bound is given, the exact number is not on record here.

T2 sequence (P10721 26-976): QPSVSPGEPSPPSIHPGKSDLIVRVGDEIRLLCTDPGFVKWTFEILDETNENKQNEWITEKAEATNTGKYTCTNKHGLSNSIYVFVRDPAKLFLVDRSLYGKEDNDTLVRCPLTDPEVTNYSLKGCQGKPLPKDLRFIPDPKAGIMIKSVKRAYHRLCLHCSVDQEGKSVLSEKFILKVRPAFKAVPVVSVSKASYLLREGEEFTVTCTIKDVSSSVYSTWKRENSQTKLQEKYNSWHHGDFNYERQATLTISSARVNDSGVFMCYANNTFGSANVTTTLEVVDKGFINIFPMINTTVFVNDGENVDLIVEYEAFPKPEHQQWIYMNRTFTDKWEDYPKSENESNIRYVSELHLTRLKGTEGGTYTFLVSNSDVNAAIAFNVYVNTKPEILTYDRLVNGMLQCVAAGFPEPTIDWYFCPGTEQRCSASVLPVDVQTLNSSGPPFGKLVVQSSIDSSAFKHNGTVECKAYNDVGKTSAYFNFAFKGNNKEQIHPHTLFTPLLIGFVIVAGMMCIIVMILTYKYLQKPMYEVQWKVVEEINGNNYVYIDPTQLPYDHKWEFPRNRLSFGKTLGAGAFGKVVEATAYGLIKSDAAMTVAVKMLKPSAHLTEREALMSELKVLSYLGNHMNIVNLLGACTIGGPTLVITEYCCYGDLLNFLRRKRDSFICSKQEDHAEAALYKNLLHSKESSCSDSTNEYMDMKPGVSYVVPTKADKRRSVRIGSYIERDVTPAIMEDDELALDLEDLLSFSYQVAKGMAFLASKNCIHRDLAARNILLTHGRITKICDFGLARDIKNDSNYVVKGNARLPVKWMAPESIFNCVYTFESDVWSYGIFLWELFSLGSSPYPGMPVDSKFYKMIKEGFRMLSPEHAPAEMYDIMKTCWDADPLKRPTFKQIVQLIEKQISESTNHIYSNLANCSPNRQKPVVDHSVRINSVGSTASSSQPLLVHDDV
Chain of CSF1R (P07333 20-972): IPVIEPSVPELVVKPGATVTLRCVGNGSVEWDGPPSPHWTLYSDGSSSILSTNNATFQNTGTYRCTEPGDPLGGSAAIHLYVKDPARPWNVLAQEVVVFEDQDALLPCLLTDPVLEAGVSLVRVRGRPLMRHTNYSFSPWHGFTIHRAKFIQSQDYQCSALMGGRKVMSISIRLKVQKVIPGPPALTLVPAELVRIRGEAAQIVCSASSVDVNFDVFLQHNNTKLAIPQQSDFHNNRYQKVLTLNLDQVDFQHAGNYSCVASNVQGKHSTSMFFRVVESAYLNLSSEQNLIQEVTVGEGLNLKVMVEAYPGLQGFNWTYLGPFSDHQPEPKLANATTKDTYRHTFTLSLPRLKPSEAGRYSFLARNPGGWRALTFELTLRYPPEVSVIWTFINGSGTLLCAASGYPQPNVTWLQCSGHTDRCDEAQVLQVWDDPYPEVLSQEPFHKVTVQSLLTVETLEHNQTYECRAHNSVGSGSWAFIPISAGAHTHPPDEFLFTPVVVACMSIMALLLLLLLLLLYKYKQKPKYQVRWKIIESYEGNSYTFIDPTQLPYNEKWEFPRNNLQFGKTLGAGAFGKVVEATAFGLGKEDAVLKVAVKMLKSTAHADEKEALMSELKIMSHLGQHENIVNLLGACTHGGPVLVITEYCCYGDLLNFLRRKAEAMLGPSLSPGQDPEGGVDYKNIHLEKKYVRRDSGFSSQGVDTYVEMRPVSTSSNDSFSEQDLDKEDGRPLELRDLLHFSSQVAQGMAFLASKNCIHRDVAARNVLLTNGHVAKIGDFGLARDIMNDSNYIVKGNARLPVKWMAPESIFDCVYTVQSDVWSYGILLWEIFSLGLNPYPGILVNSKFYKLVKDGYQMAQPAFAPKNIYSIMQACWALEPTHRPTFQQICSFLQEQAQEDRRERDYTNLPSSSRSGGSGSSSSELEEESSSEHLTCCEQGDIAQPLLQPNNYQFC

For the compound `OC[C@@H]1CCC[C@@H](Nc2nc3ccc(Cn4cnc5cc(F)cnc54)cc3s2)C1` [Example 192, ((1R,3R)-3-((6-((6-fluoro-3H-imidazo[4,5-b]pyridin-3-yl)methyl)benzo[d]thiazol-2-yl)amino)cyclohexyl)methanol], the pIC50 in the experiment on M-NFS-60 cells was 5.82 to 6.40; on CSF1R it was 6.30 to 6.70. The pKd at PDGFRβ is at least 7.30; at KIT, 6.30 to 7.00.

As for `Cn1cc(-c2ccc3c(c2)ncn3Cc2ccc3nc(N[C@@H]4CCCC[C@H]4O)sc3c2)c(C(F)(F)F)n1` [Example 185, (1R,2R)-2-((6-((5-(1-methyl-3-(trifluoromethyl)-1H-pyrazol-4-yl)-1H-benzo[d]imidazol-1-yl)methyl)benzo[d]thiazol-2-yl)amino)cyclohexanol], the pIC50 is 6.40 to 7.30 with M-NFS-60 cells and 6.70 to 7.30 at CSF1R. In addition, the results for the pKd on PDGFRβ and at KIT were at least 7.30 and at least 7.00, respectively.

Take `O[C@@H]1[C@H](O)CCC[C@H]1Nc1nc2ccc(Cn3cnc4cc(F)cnc43)cc2s1` [Example 193, (1R,2S,3R)-3-((6-((6-fluoro-3H-imidazo[4,5-b]pyridin-3-yl)methyl)benzo[d]thiazol-2-yl)amino)cyclohexane-1,2-diol]: the pIC50 in the experiment on M-NFS-60 cells and at CSF1R was at least 7.30 in each case. The pKd at PDGFRβ was at least 7.30; on KIT it was at least 7.00.

For `N#Cc1cc2ncn(Cc3ccc4nc(N[C@@H]5CCCC[C@H]5O)oc4c3)c2cc1Cl` [Example 195, 6-chloro-1-((2-(((1R,2R)-2-hydroxycyclohexyl)amino)benzo[d]oxazol-6-yl)methyl)-1H-benzo[d]imidazole-5-carbonitrile], the pIC50 with M-NFS-60 cells is 5.82 to 6.40; at CSF1R it was 6.30 to 6.70. Moreover, the pKd at PDGFRβ and at KIT was 5.70 to 6.30 in each case.

As to `O[C@@H]1CCCC[C@H]1Nc1nc2ccc(Cn3cnc4cc(OC5COC5)ccc43)cc2s1` [Example 182, (1R,2R)-2-((6-((5-(oxetan-3-yloxy)-1H-benzo[d]imidazol-1-yl)methyl)benzo[d]thiazol-2-yl)amino)cyclohexanol], the pIC50 in the experiment on M-NFS-60 cells was 6.40 to 7.30; at CSF1R, at least 7.30. For the same compound, the pKd was 6.30 to 7.30 at PDGFRβ and 6.30 to 7.00 at KIT.

In the case of `Fc1cnc2c(c1)ncn2Cc1ccc2nc(Nc3ccccc3)sc2c1` [Example 191, 6-((6-fluoro-3H-imidazo[4,5-b]pyridin-3-yl)methyl)-N-phenylbenzo[d]thiazol-2-amine], the pIC50 with M-NFS-60 cells is under 5.82; on CSF1R it was under 6.30. Besides, the results for the pKd at PDGFRβ and at KIT were 5.70 to 6.30 and 6.30 to 7.00, respectively.

With `O[C@@H]1CCCC[C@H]1Nc1nc2ccc(Cc3cnc4cc(N5CCOCC5)ccn34)cc2s1` [Example 187, (1R,2R)-2-((6-((7-morpholinoimidazo[1,2-a]pyridin-3-yl)methyl)benzo[d]thiazol-2-yl)amino)cyclohexanol], the results for the pIC50 with M-NFS-60 cells and on CSF1R were 5.82 to 6.40 and 6.70 to 7.30, respectively. The pKd on PDGFRβ is 5.70 to 6.30; at KIT it was under 5.70.

In the case of `Cc1cc(C)c2c(c1)ncn2Cc1ccc2nc(N[C@@H]3CCCC[C@H]3O)sc2c1` [Example 189], the negative-log IC50 (pIC50) in the experiment on M-NFS-60 cells was 6.40 to 7.30; at CSF1R, 6.30 to 6.70. The pKd on PDGFRβ and on KIT was 5.70 to 6.30 in each case.

On to `O[C@@H]1CCCC[C@H]1Nc1nc2ccc(Cc3cnc4ccc(Br)nn34)cc2s1` [Example 177, (1R,2R)-2-((6-((6-bromoimidazo[1,2-b]pyridazin-3-yl)methyl)benzo[d]thiazol-2-yl)amino)cyclohexanol], for which the pIC50 in the experiment on M-NFS-60 cells and on CSF1R was at least 7.30 in each case. The figures for the pKd on PDGFRβ and on KIT were at least 7.30 and at least 7.00, respectively.

On to `O[C@@H]1CCCC[C@H]1Nc1nc2ccc(Cn3cnc4cnc(C(F)(F)F)nc43)cc2s1` [Example 105, (1R,2R)-2-((6-((2-(trifluoromethyl)-9H-purin-9-yl)methyl)benzo[d]thiazol-2-yl)amino)cyclohexanol], for which the figures for the pIC50 with M-NFS-60 cells and at CSF1R were 5.82 to 6.40 and 6.30 to 6.70, respectively. The pKd at PDGFRβ and on KIT was 5.70 to 6.30 in each case.

Consider `CC(C)(O)C#Cc1cnc2c(c1)ncn2Cc1ccc2nc(N[C@@H]3CCCC[C@H]3O)sc2c1` [Example 104, (1R,2R)-2-((6-((6-(3-hydroxy-3-methylbut-1-yn-1-yl)-3H-imidazo[4,5-b]pyridin-3-yl)methyl)benzo[d]thiazol-2-yl)amino)cyclohexanol], for which the pIC50 in the experiment with M-NFS-60 cells and on CSF1R was at least 7.30 each time. Moreover, the pKd at PDGFRβ is at least 7.30; on KIT, at least 7.00.

As to `CN1CCN(c2ccn3c(Cc4ccc5nc(N[C@@H]6CCCC[C@H]6O)sc5c4)cnc3c2)CC1` [Example 188, (1R,2R)-2-((6-((7-(4-methylpiperazin-1-yl)imidazo[1,2-a]pyridin-3-yl)methyl)benzo[d]thiazol-2-yl)amino)cyclohexanol], the results for the pIC50 in the experiment with M-NFS-60 cells and at CSF1R were 5.82 to 6.40 and 6.70 to 7.30, respectively. Also, the figures for the negative-log Kd (pKd) on PDGFRβ and on KIT were 5.70 to 6.30 and under 5.70, respectively.

Consider `O[C@@H]1CCCC[C@H]1Nc1nc2ccc(Cc3cnc4cccc(F)n34)cc2s1` [Example 186, (1R,2R)-2-((6-((5-fluoroimidazo[1,2-a]pyridin-3-yl)methyl)benzo[d]thiazol-2-yl)amino)cyclohexanol], for which the pIC50 in the experiment on M-NFS-60 cells is 5.82 to 6.40; at CSF1R, 6.30 to 6.70. In addition, the pKd is 6.30 to 7.30 on PDGFRβ and 6.30 to 7.00 on KIT.

In the case of `CN1CCN(c2ccc3ncc(Cc4ccc5nc(N[C@@H]6CCCC[C@H]6O)sc5c4)n3n2)CC1` [Example 178, (1R,2R)-2-((6-((6-(4-methylpiperazin-1-yl)imidazo[1,2-b]pyridazin-3-yl)methyl)benzo[d]thiazol-2-yl)amino)cyclohexanol], the values for the pIC50 with M-NFS-60 cells and on CSF1R were 5.82 to 6.40 and 6.30 to 6.70, respectively. Moreover, the pKd at PDGFRβ and on KIT was 5.70 to 6.30 each time.

For `Cc1cc(Br)cc2ncn(Cc3ccc4nc(N[C@@H]5CCCC[C@H]5O)sc4c3)c12` [Example 190, (1R,2R)-2-((6-((5-bromo-7-methyl-1H-benzo[d]imidazol-1-yl)methyl)benzo[d]thiazol-2-yl)amino)cyclohexanol], the pIC50 with M-NFS-60 cells was 6.40 to 7.30; on CSF1R, under 6.30. Moreover, the pKd on PDGFRβ and at KIT was 5.70 to 6.30 throughout.

For `CS[C@@H]1CCCC[C@H]1Nc1nc2ccc(Cn3cnc4cc(F)cnc43)cc2s1` [Example 181, 6-((6-fluoro-3H-imidazo[4,5-b]pyridin-3-yl)methyl)-N-((1R,2R)-2-(methylthio)cyclohexyl)benzo[d]thiazol-2-amine], the pIC50 with M-NFS-60 cells was 5.82 to 6.40; on CSF1R, 6.30 to 6.70. The pKd was at least 7.30 at PDGFRβ and 6.30 to 7.00 at KIT.

Take `OC[C@H]1CC[C@@H](Nc2nc3ccc(Cn4cnc5cc(F)cnc54)cc3s2)CC1` [Example 180, (cis-4-((6-((6-fluoro-3H-imidazo[4,5-b]pyridin-3-yl)methyl)benzo[d]thiazol-2-yl)amino)cyclohexyl)methanol]: the values for the pIC50 with M-NFS-60 cells and on CSF1R were under 5.82 and under 6.30, respectively. For the same compound, the pKd was 6.30 to 7.30 on PDGFRβ and 6.30 to 7.00 at KIT.

`OC[C@H]1CCC[C@@H](Nc2nc3ccc(Cn4cnc5cc(F)cnc54)cc3s2)C1` [Example 194, ((1S,3R)-3-((6-((6-fluoro-3H-imidazo[4,5-b]pyridin-3-yl)methyl)benzo[d]thiazol-2-yl)amino)cyclohexyl)methanol]: the pIC50 in the experiment on M-NFS-60 cells is 6.40 to 7.30; on CSF1R, 6.70 to 7.30. The pKd at PDGFRβ is at least 7.30; on KIT, at least 7.00.

As to `OC[C@H]1CC[C@H](Nc2nc3ccc(Cn4cnc5cc(F)cnc54)cc3s2)CC1` [Example 179, (trans-4-((6-((6-fluoro-3H-imidazo[4,5-b]pyridin-3-yl)methyl)benzo[d]thiazol-2-yl)amino)cyclohexyl)methanol], the pIC50 in the experiment on M-NFS-60 cells was 5.82 to 6.40; on CSF1R, 6.30 to 6.70. In addition, the values for the pKd on PDGFRβ and on KIT were at least 7.30 and at least 7.00, respectively.

For `C=Cc1ccc2c(c1)ncn2Cc1ccc2nc(N[C@@H]3CCCC[C@H]3O)sc2c1` [Example 183, (1R,2R)-2-((6-((5-vinyl-1H-benzo[d]imidazol-1-yl)methyl)benzo[d]thiazol-2-yl)amino)cyclohexanol], the pIC50 in the experiment on M-NFS-60 cells and at CSF1R was at least 7.30 throughout. The pKd on PDGFRβ is 6.30 to 7.30; at KIT, at least 7.00.

Turning to `O[C@@H]1CCCC[C@H]1Nc1nc2ccc(Cn3cnc4cc(C5=CCCCC5)ccc43)cc2s1` [Example 184, (1R,2R)-2-((6-((5-(cyclohex-1-en-1-yl)-1H-benzo[d]imidazol-1-yl)methyl)benzo[d]thiazol-2-yl)amino)cyclohexanol], the pIC50 in the experiment on M-NFS-60 cells is 6.40 to 7.30; at CSF1R, 6.30 to 6.70. For the same compound, the negative logarithm of the Kd (pKd) at PDGFRβ is 6.30 to 7.30; on KIT it was at least 7.00.
